# Tests used:
# [1] = molecular target: T1, MET (Homo sapiens, UniProt P08581); experiment: MET cell mechanistic assay (MKN45), phosphorylated MET levels; assay type: cell-based; details: MKN45 cell line, four hours incubation, at least duplicate experiments, read-out: MET mech IC50
# T1 construct: endogenous in cells; host or cells: MKN45
# Procedure: The cellular activity of the compounds of the present invention against MET may be determined by the following procedure. MKN45 cells were plated in Falcon 3072 96-well plates in growth media (RPMI, 10% FBS, 1% L-glutamine) at a density of 5000 cells/well and incubated at 37° C., 5% CO2 overnight. The following day, one-tenth volume of a 10× concentration of compounds was added to the wells in a 6-point dilution series. The dilutions series was composed of an initial […] in DMSO, followed by a […] in growth media, for a final DMSO concentration on cells of 0.5%. Control wells were treated with 0.5% DMSO. The typical range of dilution was 10 μM to 3 nM. Once compound was added to the cells, plates were incubated for four hours at 37° C., 5% CO2. Plates were then washed in PBS, and lysed in triton-based lysis buffer. Lysates were transferred to a precoated capture plate made by Biosource (Cat # KHO0281). The phosphorylated MET levels were measured by incubating with a rabbit polyclonal antibody against phosphorylated MET ([pYpYpY1230/1234/1235]) followed by an anti-rabbit antibody conjugated to HRP. Signal was measured on a Wallac Victor plate reader at 450 nm. The DMSO signal of the control wells was defined as 100% and the percent of inhibition of phosphorylated MET was expressed as percent of control. IC50 values were determined from the percent of control data using a standard four-parameter model.
# (§1) The IC50 values of exemplary compounds of the present invention determined in a MET cell mechanistic assay using the MKN45 cell line according to the procedures described herein in at least duplicate experiments are abbreviated as follows and are shown in Table 2: A, IC50≦0.1 μM; B, 0.1 μM<IC50≦0.5 μM; C, 0.5 μM<IC50≦2 μM; D, IC50>2 μM; ND, not determined. The Example # of Table 2 corresponds to the compound example number as illustrated in the Experimental section above.
# [2] = test system: MKN45 cells; experiment: MKN45 cell proliferation assay (CellTiter-Glo); assay type: cell-based; details: Homo sapiens, MKN-45, 72 h; MKN45 cell line, 3 days incubation, at least duplicate experiments; read-out: Prolif. IC50
# Procedure: The effect of inhibitors on the proliferation of MKN45 cells was determined using the following protocol. MKN45 cells were plated in Corning 3917 96-well white tissue culture treated plates in growth medium (RPMI, 10% FCS) at a density of 5000 cells/well in a total volume of 135 μL and incubated at 37° C., 5% CO2, 95% humidity overnight. The following day, one-tenth volume of a 10× concentration of compounds was added to the wells in an 8-point dilution series. The dilution series was composed of an initial 1:5 dilution of a 10 mM stock of compound in DMSO, followed by serial 1:4 dilutions in DMSO, then a 1:20 dilution in growth medium prior to the 1:10 dilution into the cell plate. Final DMSO concentration on the cells was 0.1%, there were control wells treated with both 0.1% DMSO and no DMSO. The typical dilution range is 10 μM to 0.6 nM. Once the compound was added to the cells, plates were incubated for 3 days at 37° C., 5% CO2 at 95% humidity. On the third day, after allowing all cells and reagents to come to room temperature, 25 μL of CellTiter-Glo reagent (Promega # G7573) was added to the wells. Plates were shaken on a platform for 10 minutes prior to reading luminescence for 0.1 seconds. The signal of the control wells was taken as 100% growth and growth inhibition was expressed as percent of control. IC50 values were determined from the percent of control data using a standard four-parameter model.
# as §1, with “a” for “a MET”, “cell proliferation” for “cell mechanistic”, “Table 1:” for “Table 2:”, “Table 1” for “Table 2”
# Treatment of this cell line with a selective MET inhibitor led to induction of apoptosis and inhibition of proliferation, whereas non-MET-amplified cell lines were not affected. Smolen et al., Proc. Natl. Acad. Sci. USA, 103(7):2316-2321 (2006). This cell line is thus “driven” by MET, and antiproliferative effects correlate very well with the inhibition of MET phosphorylation so that the cell proliferation IC50 values can be used as surrogate for the MET cell mechanistic IC50 values. Under the assay conditions described herein, the IC50 values correlate nearly 1:1.
# T1 sequence (P08581 25-1390): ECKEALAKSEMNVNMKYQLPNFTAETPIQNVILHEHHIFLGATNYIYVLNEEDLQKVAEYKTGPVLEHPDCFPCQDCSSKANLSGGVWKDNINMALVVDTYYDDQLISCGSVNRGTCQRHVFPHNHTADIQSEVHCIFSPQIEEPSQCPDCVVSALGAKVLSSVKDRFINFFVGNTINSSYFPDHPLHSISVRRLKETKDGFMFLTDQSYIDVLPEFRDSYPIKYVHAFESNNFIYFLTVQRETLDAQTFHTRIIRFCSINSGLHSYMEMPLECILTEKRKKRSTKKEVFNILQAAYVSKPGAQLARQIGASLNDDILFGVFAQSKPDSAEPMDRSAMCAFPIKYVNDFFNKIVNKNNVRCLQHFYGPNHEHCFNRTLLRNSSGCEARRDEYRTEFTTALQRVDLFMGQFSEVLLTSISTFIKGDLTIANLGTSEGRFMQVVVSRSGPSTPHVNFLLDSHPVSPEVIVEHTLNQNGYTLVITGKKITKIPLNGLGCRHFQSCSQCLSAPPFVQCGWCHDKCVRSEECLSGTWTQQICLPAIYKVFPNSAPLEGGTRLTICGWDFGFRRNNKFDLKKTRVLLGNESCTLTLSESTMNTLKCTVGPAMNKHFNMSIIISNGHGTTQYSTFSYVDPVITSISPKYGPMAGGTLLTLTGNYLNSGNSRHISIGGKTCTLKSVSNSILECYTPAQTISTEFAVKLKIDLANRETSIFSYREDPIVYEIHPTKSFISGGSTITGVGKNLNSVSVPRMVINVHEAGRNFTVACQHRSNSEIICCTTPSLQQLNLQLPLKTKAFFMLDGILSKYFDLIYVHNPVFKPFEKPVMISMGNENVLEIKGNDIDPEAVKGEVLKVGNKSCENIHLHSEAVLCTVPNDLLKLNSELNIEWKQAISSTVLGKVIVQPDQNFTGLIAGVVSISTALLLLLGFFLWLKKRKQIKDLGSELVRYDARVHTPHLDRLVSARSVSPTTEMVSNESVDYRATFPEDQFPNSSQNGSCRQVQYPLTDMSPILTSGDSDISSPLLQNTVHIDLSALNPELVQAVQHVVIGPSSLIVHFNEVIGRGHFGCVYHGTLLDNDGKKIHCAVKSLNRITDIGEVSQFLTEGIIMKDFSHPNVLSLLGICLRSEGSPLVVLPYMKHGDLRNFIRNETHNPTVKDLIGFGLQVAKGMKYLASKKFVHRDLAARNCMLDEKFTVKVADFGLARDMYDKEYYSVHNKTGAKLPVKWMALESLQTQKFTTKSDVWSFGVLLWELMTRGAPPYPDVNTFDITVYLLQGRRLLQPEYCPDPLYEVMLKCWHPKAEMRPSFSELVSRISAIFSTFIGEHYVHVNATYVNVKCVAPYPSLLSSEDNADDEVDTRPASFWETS
Structure (SMILES),IC50 [1],IC50 [2]
"CC(c1c(Cl)ccc(F)c1Cl)c1c[nH]c2ncc(-c3cnn(C4CCNCC4)c3)nc12 (stereo not drawn) [Example 2, 7-[1-(2,6-dichloro-3-fluorophenyl)ethyl]-2-(1-piperidin-4-yl-1H-pyrazol-4-yl)-5H-pyrrolo[2,3-b]pyrazine]",0.1 to 0.5 µM,0.1 to 0.5 µM
"CC(c1c(Cl)ccc(F)c1Cl)c1c[nH]c2ncc(-c3cnn(C4CCN(C=O)CC4)c3)nc12 (stereo not drawn) [Example 3, 4-(4-{7-[1-(2,6-dichloro-3-fluorophenyl)ethyl]-5H-pyrrolo[2,3-b]pyrazin-2-yl}-1H-pyrazol-1-yl)piperidine-1-carbaldehyde]",0.1 to 0.5 µM,0.5 to 2 µM
"CC(c1c(Cl)ccc(F)c1Cl)c1c[nH]c2nnc(-c3cnn(C4CCNCC4)c3)cc12 (stereo not drawn) [Example 16, 5-[1-(2,6-Dichloro-3-fluorophenyl)ethyl]-3-[1-(piperidin-4-yl)-1H-pyrazol-4-yl]-7H-pyrrolo[2,3-c]pyridazine]",> 2 µM,> 2 µM

# Source: US20130072495A1, “FUSED BICYCLIC KINASE INHIBITORS” (OSI Pharmaceuticals, LLC, priority 2010, published 2013)
